In article PMC7600788, “Sequence Permutation Generates Peptides with Different Antimicrobial and Antibiofilm Activities” (Pharmaceuticals, 2020):
No end group written: not given here.

Legend:
[1] = tested on: chicken red blood cells; test: Hemolytic assay; format: cell-based
Description: (§1) Hemolytic assays of peptides were performed as previously described. Briefly, human red blood cells (hRBCs) obtained from UNMC Blood Bank, or chicken or porcine blood cells purchased from commercial sources as previously described, were washed three times with phosphate buffer saline (PBS) and diluted to a 2% solution (V/v). After peptide treatment, incubation at 37 °C for one hour, and centrifugation at 13,000 rpm, aliquots of the supernatant were carefully transferred to a fresh 96-well microplate. The amount of hemoglobin released was measured at 545 nm. The percent lysis was calculated by assuming 100% release when human blood cells were treated with 2% Triton X-100, and 0% release when incubated with PBS buffer. The peptide concentration that caused 50% lysis of hRBCs is defined as HC50.

[2] = tested on: Pig RBC; test: Hemolytic assay; format: cell-based
Description: as §1

[3] = tested on: human red blood cells; test: Hemolytic assay; format: cell-based; conditions: red cells of human
Description: as §1

[4] = tested on: S. aureus USA300 LAC; test: Membrane depolarization, DiBAC4(3); format: cell-based, Staphylococcus aureus; conditions: 12.5 µM
Description: Bacteria surfaces are negative and cationic peptides are able to neutralize the negative charge, thereby reducing membrane potential. To test this possibility, we evaluated the peptides against S. aureus USA300 LAC using a fluorescent indicator dye, the DiBAC4(3) (Figure 5).
The overnight culture of S. aureus USA300 LAC was grown in TSB media to the exponential phase. Cells were then pelleted and washed with PBS twice, and re-suspended in twice the volume of PBS containing 25 mM glucose for 15 min at 37 °C. For membrane depolarization measurements, 250 nM (final concentration) of the dye DiBAC4(3) (bis-(1,3-dibutylbarbituric acid) trimethine oxonol (ANASPEC, Fremont, CA, USA) was added, and vortexed gently. Ninety microliters of the energized bacteria solution were then added in a 96-well microtiter plate (Corning COSTAR). The plate was immediately placed into a FLUOstar Omega (BMG LABTECH Inc., Cary, NC, USA) microplate reader and fluorescence was measured for 20 min. Once the readings are stabilized, 10 μL of peptide solution were added and the fluorescence readings were continued for another 40 min. Measurements were done at an excitation and emission wavelengths of 485 and 520 nm, respectively. Triton X-100 (0.1%) was included as a positive control.

[5] = tested on: P. aeruginosa PAO1; format: cell-based, Pseudomonas aeruginosa; conditions: PAO1
Description: (§2) The antimicrobial activity spectrum of the WW peptide series was performed on a panel of Gram-positive and -negative bacteria using the standard broth micro-dilution method with minor modifications as described. […] There was a small change in the case of Pseudomonas aeruginosa and Acinetobacter baumannii up to two-fold. Four-fold changes were found for Staphylococcus aureus, Staphylococcus epidermidis, Escherichia coli, and Bacillus subtilis. However, we observed over eight-fold MIC changes for Klebsiella pneumoniae and vancomycin-resistant enterococcus (VRE). […] We also observed more than eight-fold changes in minimal bacterial killing concentrations.
(§3) The antibacterial activity of peptides was evaluated using a standard broth microdilution protocol with minor modifications as previously described. In brief, logarithmic phase bacterial cultures (i.e., optical density at 600 nm ≈ 0.5) were diluted to OD600~0.001 and partitioned into a 96-well polystyrene microplate at 90 μL per well. After treatment with 10 μL of peptide solutions two-fold diluted to various concentrations, microplates were incubated at 37 °C overnight and read on a ChroMate 4300 Microplate Reader at 630 nm (GMI, Ramsey, MN). […] Minimal bactericidal concentration (MBC) was determined by plating the clear wells at MIC or above. The peptide concentration that caused no bacterial growth on the petri dish is MBC.

[6] = tested on: S. aureus USA300 LAC; format: cell-based, Staphylococcus aureus; conditions: USA300
Description: To gain additional insight, we also compared the effects of physiological saline and human serum on the antibacterial activities of WW291-WW298 using both E. coli and S. aureus (Table 3). In our assays, salts and serum were present during the entire course of the experiment. […] Thus, WW295 and WW298 stand out in terms of activity robustness (bold in Table 3).
as §3

[7] = tested on: B. subtilis 167; format: cell-based, Bacillus subtilis; conditions: 167
Description: as §2, §3

[8] = tested on: S. aureus USA300 LAC; test: Inhibition of biofilm attachment (XTT); format: cell-based, Staphylococcus aureus; conditions: concentration series, Figure 6A
Excerpt: Antimicrobial effects of the peptides are different on diverse forms of bacteria. The free and motile forms cultivated in laboratories are the planktonic bacteria onto which the peptides and antibiotics can have direct effects. However, the activity of the microbicides can be reduced to the biofilm forms where bacteria are less exposed and hidden inside the shield. The development of the biofilms starts with the attachment of the individual cells on the substratum followed by biofilm growth and maturation into more solid biomass. We tested the ability of WW295 and WW298 in fighting the biofilms of S. aureus USA300 LAC at the two stages. […] These 96-well commercial plates were pre-treated commercially with tissue culture to enhance cell adhesion.
This experiment was performed to measure the ability of the peptide to inhibit bacterial attachment, the initial step for biofilm formation. In short, an overnight culture of S. aureus USA300 was grown in TSB media to an optical density (600 nm) of ∼1.0. […] Live cells in the biofilms were then quantitated using XTT [2,3-bis(2-methyloxy-4-nitro-5-sulfophenyl)-2H-tertazolium-5-carboxanilide] assay by following the manufacturer’s instructions with modifications. […] Absorbance at 450 nm (only media with XTT containing wells served as the blank) was obtained using a Chromate^TM microtiter plate reader. […]

[9] = tested on: E. faecium VRE; format: cell-based; conditions: VRE
Description: as §2, §3

RKIWWWWL [WW295]
Chicken RBC, concentration that caused 50% red blood cell lysis (HC50) [1]: 100 µM
Pig RBC, concentration that caused 50% red blood cell lysis (HC50) [2]: >100 µM
Human RBC, concentration that caused 50% red blood cell lysis (HC50) [3]: 57 µM
membrane depolarization (DiBAC4(3) fluorescence) [4]: less active in depolarizing the membranes
Minimal Inhibitory Concentration (MIC), PA [5]: 25 to 50 µM
MIC, +150 mM NaCl [6]: 3.1 µM
MIC, +10% Human Serum [6]: 12.5 µM
MIC, TSB [6]: 3.1 µM
Minimal Inhibitory Concentration (MIC), BS [7]: 12.5 µM
effect on surface adherence of MRSA (in words) [8]: did not show any effects
Minimal Inhibitory Concentration (MIC), VRE [9]: 6.25 µM
